Experimental data taken from patent US11077090B2, “Compounds and compositions and uses thereof” (Sunovion Pharmaceuticals Inc., priority 2016, dated 2021).
Structures can show the parent of a compound that is named as a salt. Where two headings read alike, the source gives them in different places.

System: compound-treated mice
Test: Neuropharmacological assay (SmartCube): behavioral activity signature and minimal effective dose
Format: in vivo
Conditions: for minimal effective dose: Mus musculus, ip, MED = dose having 50% or more total activity; for AD: ADHD (probability of activity signature) / AG: analgesic (probability of activity signature) / AX: anxiolytic (probability of activity signature) / CE: cognitive enhancer (probability of activity signature) / DP: anti-depressant (probability of activity signature) / MS: mood stabilizer (probability of activity signature) / PS: anti-psychotic (probability of activity signature) / SD: sedative hypnotic (probability of activity signature) / UN: uncharacterized CNS activity (probability of activity signature): i.p. 15 min before test, most efficacious dose(s)
From the text: Neurosci. 2011 Sep. 9; 5:103 (doi: 10.3389/fnins.2011.00103) (“Roberds”). As reported in Roberds, because psychiatric diseases generally result from disorders of cell-cell communication or circuitry, intact systems are useful in detecting improvement in disease-relevant endpoints. These endpoints are typically behavioral in nature, often requiring human observation and interpretation. To facilitate testing of multiple compounds for behavioral effects relevant to psychiatric disease, PsychoGenics, Inc. (Tarrytown, N.Y., “PGI”) developed SmartCube™, an automated system in which behaviors of compound-treated mice are captured by digital video and analyzed with computer algorithms. (D. Brunner et al., Drug Discov. Today 2002, 7:S107-S112). PGI Analytical Systems uses data from SmartCube™ to compare the behavioral signature of a test compound to a database of behavioral signatures obtained using a large set of diverse reference compounds. (The composition of the database as well as validation of the method is further described in Roberds). In this way, the neuropharmacological effects of a test compound can be predicted by similarity to major classes of compounds, such as antipsychotics, anxiolytics and antidepressants.
The SmartCube™ system produces an activity signature indicating the probability that the activity of the test compound at the administered dose matches a given class of neuropharmacological agents. (See, e.g., Roberds, FIGS. 2 and 3). The test compound is simultaneously compared against multiple classes of agents; thus, a separate probability is generated for each behavioral effect measured (e.g., anxiolytic activity, analgesic activity, etc.). In the table below, these probabilities are reported for each behavioral effect measured as follows:
where LOQ is the limit of quantification.
Provided compounds were dissolved in a mixture of Pharmasolve™ (N-methyl-2-pyrrolidone), polyethylene glycol and propylene glycol, and were injected i.p. 15 min. before the behavioral test. For each compound, injections were administered at 3 different doses. For each behavioral effect measured, results for the most efficacious dose(s) are presented. In the table below, DP: anti-depressant; AX: anxiolytic; SD: sedative hypnotic; PS: anti-psychotic; MS: mood stabilizer; AD: ADHD; CE: cognitive enhancer; AG: analgesic; UN: uncharacterized CNS activity.
The potency of many of the compounds in the table was also determined in the SmartCube™ system. Test compounds were routinely examined at dose levels of 0.3, 1, 3, 10 and 30 mg per kg (mpk), although the dose range was increased or decreased if necessary to obtain a full dose response curve. A compound's minimal effective dose (MED) is a measure of the compounds potency. The MED was defined as the dose (in mpk) having 50% or more total activity in SmartCube.

[1] = read-out: Potency: minimal effective dose (MED), binned
[2] = read-out: Potency: minimal effective dose (MED)

SMILES	minimal effective dose [1] [mg/kg]	AD: ADHD (probability of activity signature)	AG: analgesic (probability of activity signature)	AX: anxiolytic (probability of activity signature)	CE: cognitive enhancer (probability of activity signature)	DP: anti-depressant (probability of activity signature)	MS: mood stabilizer (probability of activity signature)	PS: anti-psychotic (probability of activity signature)	SD: sedative hypnotic (probability of activity signature)	UN: uncharacterized CNS activity (probability of activity signature)	minimal effective dose [2] [mg/kg]
CC[C@@H]1OCc2ccc(C)cc2[C@H]1N (single isomer, unassigned) [Example 178]	10 to 30	+ (LOQ ≤ + <5%)	++ (5% ≤ ++ <25%)	++ (5% ≤ ++ <25%)	+ (LOQ ≤ + <5%)	++ (5% ≤ ++ <25%)	+ (LOQ ≤ + <5%)	++ (5% ≤ ++ <25%)	++ (5% ≤ ++ <25%)	+++ (25% ≤ +++ <50%)	
CC[C@H]1OCc2ccc(F)cc2[C@@H]1N [Example 181]	< 3	+ (LOQ ≤ + <5%)	++ (5% ≤ ++ <25%)	++ (5% ≤ ++ <25%)	++ (5% ≤ ++ <25%)	+ (LOQ ≤ + <5%)	+ (LOQ ≤ + <5%)	++ (5% ≤ ++ <25%)	+++ (25% ≤ +++ <50%)	++++ (50% ≤ ++++)	
C#CCN[C@H]1c2ccccc2CO[C@@H]1C.Cl [Example 270]	< 3	++ (5% ≤ ++ <25%)	+ (LOQ ≤ + <5%)	++ (5% ≤ ++ <25%)	+ (LOQ ≤ + <5%)	++ (5% ≤ ++ <25%)	++++ (50% ≤ ++++)	+ (LOQ ≤ + <5%)	++ (5% ≤ ++ <25%)	++ (5% ≤ ++ <25%)	
Cc1ccc2c(c1C)[C@H](N)COC2 [Example 135]		+ (LOQ ≤ + <5%)	++ (5% ≤ ++ <25%)	+++ (25% ≤ +++ <50%)	++ (5% ≤ ++ <25%)	++ (5% ≤ ++ <25%)	+ (LOQ ≤ + <5%)	++ (5% ≤ ++ <25%)	++ (5% ≤ ++ <25%)	+++ (25% ≤ +++ <50%)	< 3
CN[C@H]1COCc2c(Cl)cccc21 (single isomer, unassigned) [Example 150]		+ (LOQ ≤ + <5%)	++ (5% ≤ ++ <25%)	++ (5% ≤ ++ <25%)	+ (LOQ ≤ + <5%)	+ (LOQ ≤ + <5%)	+ (LOQ ≤ + <5%)	++ (5% ≤ ++ <25%)	+ (LOQ ≤ + <5%)	++++ (50% ≤ ++++)	3 to 10
Cc1ccc2c(c1)[C@H](N)CO[C@H]2C.Cl [Example 107]		+ (LOQ ≤ + <5%)	++ (5% ≤ ++ <25%)	++ (5% ≤ ++ <25%)	++ (5% ≤ ++ <25%)	+ (LOQ ≤ + <5%)	+ (LOQ ≤ + <5%)	++ (5% ≤ ++ <25%)	+ (LOQ ≤ + <5%)	+++ (25% ≤ +++ <50%)	3 to 10
Cc1nc2c3c(ccc2s1)COCC3N.Cl (stereo not drawn) [Example 16]		+ (LOQ ≤ + <5%)	++ (5% ≤ ++ <25%)	+++ (25% ≤ +++ <50%)	++ (5% ≤ ++ <25%)	+ (LOQ ≤ + <5%)	+ (LOQ ≤ + <5%)	++ (5% ≤ ++ <25%)	+ (LOQ ≤ + <5%)	+++ (25% ≤ +++ <50%)	10 to 30
Cc1cc(C)c2c(c1)C(N)COC2.Cl (stereo not drawn) [Example 46, 6,8-Dimethylisochroman-4-amine hydrochloride]		+ (LOQ ≤ + <5%)	++ (5% ≤ ++ <25%)	++ (5% ≤ ++ <25%)	++ (5% ≤ ++ <25%)	+ (LOQ ≤ + <5%)	+ (LOQ ≤ + <5%)	+ (LOQ ≤ + <5%)	++ (5% ≤ ++ <25%)	++++ (50% ≤ ++++)	< 3
C[C@@H]1OC[C@H](N)c2ccccc21.Cl (relative stereo) [Example 104, cis-1-Methylisochroman-4-amine hydrochloride]		+ (LOQ ≤ + <5%)	++ (5% ≤ ++ <25%)	++ (5% ≤ ++ <25%)	++ (5% ≤ ++ <25%)	++ (5% ≤ ++ <25%)	+ (LOQ ≤ + <5%)	++ (5% ≤ ++ <25%)	++ (5% ≤ ++ <25%)	+++ (25% ≤ +++ <50%)	3 to 10
CN[C@@H]1CO[C@@H](C)c2ccccc21 (relative stereo) [Example 236, trans-N,1-dimethylisochroman-4-amine hydrochloride]	3 to 10	+ (LOQ ≤ + <5%)	++ (5% ≤ ++ <25%)	++ (5% ≤ ++ <25%)	+ (LOQ ≤ + <5%)	++ (5% ≤ ++ <25%)	+ (LOQ ≤ + <5%)	++ (5% ≤ ++ <25%)	+ (LOQ ≤ + <5%)	++++ (50% ≤ ++++)	
Cc1ccc2c(c1C)C(NC(C)C)COC2.Cl (stereo not drawn) [Example 55]		+ (LOQ ≤ + <5%)	++ (5% ≤ ++ <25%)	++ (5% ≤ ++ <25%)	++ (5% ≤ ++ <25%)	+ (LOQ ≤ + <5%)	+ (LOQ ≤ + <5%)	++ (5% ≤ ++ <25%)	+ (LOQ ≤ + <5%)	+++ (25% ≤ +++ <50%)	3 to 10
Cc1ccc2c(c1)[C@@H](C)OC[C@H]2N [Example 221]	3 to 10	+ (LOQ ≤ + <5%)	+ (LOQ ≤ + <5%)	++ (5% ≤ ++ <25%)	+ (LOQ ≤ + <5%)	++ (5% ≤ ++ <25%)	+ (LOQ ≤ + <5%)	++ (5% ≤ ++ <25%)	+ (LOQ ≤ + <5%)	++++ (50% ≤ ++++)	
